Experimental data as given in publication PMC9409043, “Serotonin 5-HT6 Receptor Ligands and Butyrylcholinesterase Inhibitors Displaying Antioxidant Activity—Design, Synthesis and Biological Evaluation of Multifunctional Agents against Alzheimer’s Disease” (International Journal of Molecular Sciences, 2022).
Values joined by “and” are separate entries in the source; they are usually repeats but may differ in a detail not shown here. Equal values may be shown once.

Key:
[1] = target: T1, human 5-HT6 receptor (Homo sapiens, UniProt P50406); experiment: 5-HT6 receptor radioligand binding assay ([3H]-LSD, CHO-K1 membranes)
T1 construct: purchased PerkinElmer; host or cells: CHO-K1 cells, stably transfected (membrane preparation)
T1 sequence (P50406 whole entry): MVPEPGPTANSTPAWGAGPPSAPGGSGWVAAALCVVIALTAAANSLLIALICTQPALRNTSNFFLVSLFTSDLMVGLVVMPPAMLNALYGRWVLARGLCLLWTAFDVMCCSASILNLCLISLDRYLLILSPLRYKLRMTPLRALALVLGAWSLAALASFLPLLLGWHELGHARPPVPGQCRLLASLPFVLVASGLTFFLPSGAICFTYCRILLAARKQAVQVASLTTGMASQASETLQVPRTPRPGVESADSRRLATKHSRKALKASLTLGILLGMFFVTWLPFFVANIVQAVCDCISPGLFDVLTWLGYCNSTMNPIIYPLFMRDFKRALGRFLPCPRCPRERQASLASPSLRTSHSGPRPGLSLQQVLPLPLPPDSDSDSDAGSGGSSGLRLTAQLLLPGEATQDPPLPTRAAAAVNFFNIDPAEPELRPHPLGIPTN
Procedure: 5-HT6R binding affinity and cholinesterase (AChE/BuChE) inhibitory activity. We evaluated the pharmacological properties of the final compounds 12–19 in vitro according to the previously described, well-established protocols. Their affinities for recombinant human 5-HT6 receptors (h5-HT6R) were tested in a radioligand binding assay and the inhibitory potencies against human recombinant AChE (hAChE) and BuChE isolated from human plasma (hBuChE) in the spectrophotometric Ellman’s assay. […].
We prepared 10 mM of stock solutions of tested compounds in DMSO. Serial dilutions of compounds were prepared in a 96-well microplate in assay buffers using the automated pipetting system epMotion 5070 (Eppendorf). Each compound was tested in 8 concentrations from 10^−5 to 10^−12 M (final concentration).
The radioligand binding assay was performed using membranes from CHO-K1 cells stably transfected with the human 5-HT6 receptor (PerkinElmer) according to the previously described procedure. All assays were carried out in duplicates. We prepared 50 µL working solution of the tested compounds, 50 µL [^3H]-LSD (final concentration 2.5 nM) and 150 µL diluted membranes (15 µg protein per well) in assay buffer (50 mM Tris, pH 7.4, 10 mM MgCl2, 0.1 mM EDTA) and transferred them to polypropylene 96-well microplates using a 96-well pipetting station Rainin Liquidator (MettlerToledo). Methiothepin (10 μM) was used to define nonspecific binding. The microplate was covered with sealing tape, mixed and incubated for 60 min at 27 °C. The reaction was terminated by rapid filtration through GF/B filter mate presoaked with 0.5% polyethyleneimine for 30 min. Ten rapid washes with 200 µL 50 mM Tris buffer (4 °C, pH 7.4) were performed using the automated harvester system Harvester-96 MACH III FM (Tomtec). The filter mates were dried at 37 °C in a forced air fan incubator and then solid scintillator MeltiLex was melted on filter mates at 90 °C for 5 min. Radioactivity was counted in MicroBeta2 scintillation counter (PerkinElmer). Data were fitted to a one-site curve-fitting equation with Prism 6 (GraphPad Software) and Ki values were estimated from the Cheng−Prusoff equation.

[2] = ABTS free radical scavenging assay
Description: Antioxidant activity. As mentioned before, oxidative stress is one of the components of AD pathomechanism and is characterised by an imbalance in the production of ROS. One of the mechanisms by which antioxidants reduce the concentration of ROS and therefore prevent or slow the cell damage caused by free radicals is scavenging them. Thus, we tested the scavenging ability of compounds 12–19 in the spectrophotometric ABTS assay that we used before. In this assay, the ability of compounds to scavenge ABTS^• radicals, which are generated from 2,2’-azino-bis(3-ethylbenzothiazoline-6-sulphonic acid) (ABTS), is measured. We tested the compounds at three concentrations: 30, 75 and 150 μM after 5, 30 and 60 min of incubation using Trolox, a water-soluble vitamin E analogue, as a reference (Table S1 in Supporting information).
The spectrophotometric ABTS assay was performed in 96-well microplates with the reagents purchased from Sigma-Aldrich (Steinheim, Germany) according to the previously described procedure. Stock solutions of the tested compounds (6.4 mM) and reagents were prepared in DMSO and water, respectively. 2,2′-Azino-bis(3-ethylbenzothiazoline-6-sulfonic acid) free radical (ABTS^•) was prepared by mixing the stock solution of ABTS (7 mM) and […] (2.45 mM) in ratio 1:1. The mixture was kept in the dark at 4 °C for 16 h. The obtained solution of (ABTS^•) was diluted with water 20 times. Then, the test compound or water or mixture of DMSO/water in the appropriate ratio (0.02 mL) was added to ABTS^• solution (0.18 mL). The three concentrations of the test compounds and Trolox were tested in triplicate: 0.15, 0.075 and 0.03 mM. Changes in absorbance were measured at 734 nm after 5, 30 and 60 min, using a microplate reader (SPECTROstar Nano; BMG Labtech, Ortenberg, Germany). Based on the equation ((A0 − A)/A0) × 100% (where A0 and A were the absorbances without and with the test compound, respectively) the percentage of free radical scavenging activity was calculated. The results are presented as mean ± SD.

[3] = target: T2, human recombinant AChE (hAChE) (Homo sapiens, UniProt P22303); experiment: biochemical; details: mean ± SEM of at least three experiments
T2 construct: purchased Sigma-Aldrich (Steinheim, Germany)
T2 sequence (P22303 32-614): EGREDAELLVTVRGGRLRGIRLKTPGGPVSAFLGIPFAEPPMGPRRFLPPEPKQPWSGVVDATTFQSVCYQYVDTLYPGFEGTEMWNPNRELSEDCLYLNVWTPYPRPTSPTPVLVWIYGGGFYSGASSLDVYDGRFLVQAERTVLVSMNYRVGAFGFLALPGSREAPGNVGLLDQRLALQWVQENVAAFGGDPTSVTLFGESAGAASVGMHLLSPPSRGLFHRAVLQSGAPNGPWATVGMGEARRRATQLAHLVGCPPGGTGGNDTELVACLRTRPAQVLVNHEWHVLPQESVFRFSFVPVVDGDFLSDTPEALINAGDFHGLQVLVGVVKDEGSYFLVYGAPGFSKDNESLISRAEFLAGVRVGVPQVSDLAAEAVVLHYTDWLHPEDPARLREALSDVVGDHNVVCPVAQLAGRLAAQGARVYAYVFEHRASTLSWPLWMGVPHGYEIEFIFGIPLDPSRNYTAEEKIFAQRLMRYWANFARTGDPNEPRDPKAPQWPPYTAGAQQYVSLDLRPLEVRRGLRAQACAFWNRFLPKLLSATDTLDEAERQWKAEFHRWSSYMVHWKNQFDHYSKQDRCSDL
Procedure: (§1) 5-HT6R binding affinity and cholinesterase (AChE/BuChE) inhibitory activity. […] Their affinities for recombinant human 5-HT6 receptors (h5-HT6R) were tested in a radioligand binding assay and the inhibitory potencies against human recombinant AChE (hAChE) and BuChE isolated from human plasma (hBuChE) in the spectrophotometric Ellman’s assay.
(§2) The assay was based on spectrophotometric Ellman’s method and was performed in 96-well microplates with the reagents purchased from Sigma-Aldrich (Steinheim, Germany) according to the previously described procedure. hBuChE was kindly donated by Vivonics (Bedford, MA, USA). […] After 5 minutes of the enzymatic reaction, the changes in absorbance were measured at 412 nm, using a microplate reader (SPECTROstar Nano; BMG Labtech, Ortenberg, Germany). First, compounds were tested at the screening concentration of 10 µM. Based on the equation 100 − (S/B) × 100 (where S and B were the respective enzyme activities with and without the test sample, respectively) the percentage inhibition of each enzyme for each compound was calculated. […] The IC50 values were calculated using nonlinear regression (GraphPad Prism 5; GraphPad Software, San Diego, CA, USA) by plotting the residual enzyme activities against the applied inhibitor concentration. […] All experiments were performed in triplicate.

[4] = target: T3, BuChE isolated from human plasma (hBuChE) (Homo sapiens, UniProt P06276); experiment: biochemical; assay type: biochemical; details: for IC50: mean ± SEM of at least three experiments
T3 construct: BuChE isolated from human plasma (hBuChE); tissue Vivonics (Bedford, MA, USA), donated; host or cells: human plasma
T3 sequence (P06276 29-602): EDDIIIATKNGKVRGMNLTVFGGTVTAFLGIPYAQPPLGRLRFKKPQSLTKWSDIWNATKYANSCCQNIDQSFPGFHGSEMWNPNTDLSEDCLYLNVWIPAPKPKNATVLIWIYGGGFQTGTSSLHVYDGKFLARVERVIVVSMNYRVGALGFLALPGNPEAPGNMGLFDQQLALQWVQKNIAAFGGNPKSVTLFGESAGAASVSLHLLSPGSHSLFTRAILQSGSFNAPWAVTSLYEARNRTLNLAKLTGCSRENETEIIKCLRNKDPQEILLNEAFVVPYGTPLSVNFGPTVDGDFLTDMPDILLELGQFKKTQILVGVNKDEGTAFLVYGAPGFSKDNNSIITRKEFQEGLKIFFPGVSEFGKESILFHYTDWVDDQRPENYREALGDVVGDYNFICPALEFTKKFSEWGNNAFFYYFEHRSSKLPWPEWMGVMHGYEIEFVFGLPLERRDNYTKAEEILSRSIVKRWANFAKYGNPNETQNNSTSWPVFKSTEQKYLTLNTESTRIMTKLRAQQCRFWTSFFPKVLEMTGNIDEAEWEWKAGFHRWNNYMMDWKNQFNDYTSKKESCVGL
Procedure: as §1, §2

O=S(=O)(c1ccccc1)N1CCc2c(OCCNCC3CCN(Cc4ccccc4)CC3)cccc21 [Compound 15, N-((1-Benzylpiperidin-4-yl)methyl)-2-((1-(phenylsulfonyl)indolin-4-yl)oxy)ethan-1-amine]
Ki [1]: 267 ± 9 nM
% of ABTS• reduction ± SD ([2]; 30 µM, 5 min): 10±0%
% of ABTS• reduction ± SD ([2]; 30 µM, 30 min): 10±1%
% of ABTS• reduction ± SD ([2]; 30 µM, 60 min): 11±0%
% of ABTS• reduction ± SD ([2]; 75 µM, 5 min): 11±1%
% of ABTS• reduction ± SD ([2]; 75 µM, 30 min): 13±1%
% of ABTS• reduction ± SD ([2]; 75 µM, 60 min): 15±1%
% of ABTS• reduction ± SD ([2]; 150 µM, 5 min): 19±1%
% of ABTS• reduction ± SD ([2]; 150 µM, 30 min): 29±1%
% of ABTS• reduction ± SD ([2]; 150 µM, 60 min): 36±4%
IC50 [3]: 8210 ± 225 nM
IC50 [4]: 5410 ± 100 nM

O=S(=O)(c1ccccc1)n1ccc2c(OCCNCCCC3CCN(Cc4ccccc4)CC3)cccc21 [Compound 14, 3-(1-Benzylpiperidin-4-yl)-N-(2-((1-(phenylsulfonyl)-1H-indol-4-yl)oxy)ethyl)propan-1-amine]
Ki [1]: 22 ± 2 nM
% of ABTS• reduction ± SD ([2]; 30 µM, 5 min): 5±3%
% of ABTS• reduction ± SD ([2]; 30 µM, 30 min): 5±3%
% of ABTS• reduction ± SD ([2]; 30 µM, 60 min): 6±3%
% of ABTS• reduction ± SD ([2]; 75 µM, 5 min): 13±1%
% of ABTS• reduction ± SD ([2]; 75 µM, 30 min): 18±0%
% of ABTS• reduction ± SD ([2]; 75 µM, 60 min): 21±0%
% of ABTS• reduction ± SD ([2]; 150 µM, 5 min): 20±0%
% of ABTS• reduction ± SD ([2]; 150 µM, 30 min): 29±0%
% of ABTS• reduction ± SD ([2]; 150 µM, 60 min): 35±0% and 35%
IC50 [3]: 930 ± 35 nM
fold higher potency against hBuChE than hAChE ([4]; hAChE IC50 vs. hBuChE IC50): 60 fold
IC50 [4]: 16 ± 1 nM

O=c1[nH]c2c(OCCNCCC3CCN(Cc4ccccc4)CC3)cccc2n1Cc1ccccc1 [Compound 18, 1-Benzyl-4-(2-((2-(1-benzylpiperidin-4-yl)ethyl)amino)ethoxy)-1,3-dihydro-2H-benzo[d]imidazol-2-one]
Ki [1]: 142 ± 20 nM
% of ABTS• reduction ± SD ([2]; 30 µM, 5 min): 10±1%
% of ABTS• reduction ± SD ([2]; 30 µM, 30 min): 23±1%
% of ABTS• reduction ± SD ([2]; 30 µM, 60 min): 27±1%
% of ABTS• reduction ± SD ([2]; 75 µM, 5 min): 11±1%
% of ABTS• reduction ± SD ([2]; 75 µM, 30 min): 31±1%
% of ABTS• reduction ± SD ([2]; 75 µM, 60 min): 36±2%
% of ABTS• reduction ± SD ([2]; 150 µM, 5 min): 13±0%
% of ABTS• reduction ± SD ([2]; 150 µM, 30 min): 33±0%
% of ABTS• reduction ± SD ([2]; 150 µM, 60 min): 40±0%
IC50 [3]: 2860 ± 68 nM
IC50 [4]: 1160 ± 24 nM
